Test results published in patent US20230104487A1, “11-(4-CHLOROPHENYL)-4-(2,3-DIHYDRO-1H-INDOLE-1-CARBONYL)-3,11-DIMETHYL-5,10,DIOXATRICYCLO[7.4.0.0,2,6,]TRIDECA-1,3,6,8-TETRAEN-13-ONE AND DERIVATIVES AS DESTABILIZER OF CRY1 FOR THE TREATMENT OF CIRCADIAN RHYTHM ASSOCIATED DISEASES AND DISORDERS” (KOC UNIVERSITESI, priority 2019, published 2023).
Entries after “also recorded” stand apart in the source; their conditions may differ.

Key:
CRY2 = target: T1, CRY2 (Mus musculus, UniProt Q9R194); assay: Pull-down assay with biotinylated molecule, CRY2-HIS-MYC; type: binding; conditions: 50 μM bFORMULA I, 100 μM FORMULA I competitor
T1 construct: expressed in transfected cells; host or cells: HEK293T (lysate)
T1 sequence (Q9R194 1-592): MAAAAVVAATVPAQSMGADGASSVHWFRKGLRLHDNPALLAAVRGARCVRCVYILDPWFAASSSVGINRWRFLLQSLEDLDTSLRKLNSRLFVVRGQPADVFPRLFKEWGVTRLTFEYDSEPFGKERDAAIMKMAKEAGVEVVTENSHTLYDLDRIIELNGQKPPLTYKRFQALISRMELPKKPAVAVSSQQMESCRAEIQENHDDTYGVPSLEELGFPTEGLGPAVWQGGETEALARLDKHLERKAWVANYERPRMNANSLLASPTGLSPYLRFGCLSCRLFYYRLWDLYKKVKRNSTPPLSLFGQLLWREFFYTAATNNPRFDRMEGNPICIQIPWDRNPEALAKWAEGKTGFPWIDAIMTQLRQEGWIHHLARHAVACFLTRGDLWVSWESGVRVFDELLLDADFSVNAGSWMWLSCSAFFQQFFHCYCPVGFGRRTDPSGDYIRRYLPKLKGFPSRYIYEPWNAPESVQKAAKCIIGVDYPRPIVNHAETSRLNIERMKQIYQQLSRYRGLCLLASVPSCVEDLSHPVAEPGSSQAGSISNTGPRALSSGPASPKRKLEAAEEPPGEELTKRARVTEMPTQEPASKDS
Protocol: 10 μg of Cry1-pcDNA4, Cry2-pcDNA4 or Cry1-T5-pcDNA4 plasmids expressing His and Myc at the C-terminal of CRYs were transfected to HEK293T cell. After 48 h of transfection cells were harvested and lysed in lysis buffer (50 mM Tris pH 7.4, 2 mM EDTA, 1 mM MgCl2, 0.2% NP-40 (v/v), 0.1% sodium deoxycholate (w/v), 1 mM sodium orthovanadate, 1 mM sodium fluoride, and protease inhibitor cocktail (Thermo Scientific)). Lysates were incubated for 10 minutes on ice then mixed gently and incubated for another 10 minutes on ice. Then lysate was centrifuged for 10 minutes at 7000 g at 4° C. 5% of the supernatant was kept for input analysis. Remaining supernatant was divided to three and mixed with 2×binding buffer (100 mM Tris-HCl pH 7.4, 300 mM NaCl, 0.2% NP-40 (v/v), 2 mM sodium orthovanadate, 2 mM sodium fluoride, and protease inhibitor) with 1:1 ratio, incubated with rotation having either of these: a) DMSO, b) biotinylated molecule, c) biotinylated molecule and the competitor for 2 h. During this period NeutrAvidin Agarose resin (Thermo Scientific) was equilibrated with lysis buffer by mixing for 5 minutes via rotation at 4° C. three times. After each mix period, resins were centrifuged at 2500 g at 4° C. for 2 minutes and supernatant was discarded. […] Pulled-down samples were analyzed via western blot.

[1] = tested on: Dbp, Cry1, Cry2, Per2 mRNA; assay: RT-qPCR of clock genes, synchronized U2-OS cells; type: cell-based, human; conditions: 10 μM, 72-92 h
Protocol: FIGS. 3A-3G are an illustration of FORMULA I decreased CRY1 level in synchronized U2-OS cells. Confluent U2-OS cells were synchronized by 2 h treatment with dexamethasone ([…]) and medium replaced with fresh medium containing FORMULA I or solvent (DMSO final 0.5%). Cells were harvested at indicated time points. FIGS. 3A-3B show lysed cells were analyzed via protein immunoblot technique. […] CRY levels in DMSO control divided by that of in FORMULA I treated samples were reported (mean±SEM, n=4). FIGS. 3C-3G show cells were subjected to reverse-transcription-quantitative polymerase chain reaction (RT-qPCR). […] Expression level of genes was normalized according to the expression level of that gene at 72ndh. (Data represent the mean±SEM, n=3 with duplicates ***: p<0.001 **: p<0.005, *: p<0.05 versus DMSO control by two-way ANOVA).
QIAGEN RNeasy Mini Kit was used to isolate the mRNA. Protocol provided by the manufacturer was followed. […] Quantity of RNA was determined by Nanodrop 2000 (Thermo Scientific). […] For quantitative real time PCR (qRT-PCR) analysis cDNAs were further diluted 5-fold (1:5). mRNA expression levels were calculated by qRT-PCR with the SYBR Green. […] 10 seconds denaturation, 57 to 62° C. for 20 seconds annealing (the degree is determined by primer type) and 72° C. for 30 seconds of elongation, 35 cycles. […]

Question: `Cc1c(C(=O)N2CCc3ccccc32)oc2ccc3c(c12)C(=O)CC(C)(c1ccc(Cl)cc1)O3` (stereo not drawn) [FORMULA I, 11-(4-chlorophenyl)-4-(2,3-dihydro-1H-indole-1-carbonyl)-3,11-dimethyl-5,10,dioxatricyclo[7.4.0.0,2,6,]trideca-1,3,6,8-tetraen-13-one] was tested. Which “physical binding to CRY2 (pull-down)” value (CRY2) did it give?
Answer: does not bind to CRY2

Question: What about the “Dbp and Per2 mRNA levels” value [1] of the same molecule?
Answer: Increase in clock output genes of the Dbp and Per2 mRNA levels; also recorded: increased the level of Dbp and Per2

Question: And the “peak time and abundance of Cry1, Cry2 (and Dbp) mRNA” value [1]?
Answer: changed the peak time without significantly changing their overall abundance; also recorded: changed the peak time of Dbp, Cry1 and Cry2
